Data reported in ChEMBL document CHEMBL5154819 (Eur J Med Chem, 2022).

How the values were obtained:
Mus musculus [1] = test: Analgesic activity in acetic acid induced ICR mouse assessed as average writhing times at 0.25 mg/kg, iv administered for 15 mins followed by acetic acid injection and measured within 15 mins (reference value: 21.1 +/- 16.3); format: functional; conditions: time 30 min, 0.5 h
[2] = Drug metabolism in Sprague-Dawley rat plasma assessed as trans-(R)-2-(4-(((1S,2R)-2-Hydroxycyclopentyl)methyl)phenyl)propanoic acid metabolite formation at 3 mg/kg, iv measured after 2 hrs by UHPLC-MS/MS analysis; format: ADME, organism-based; conditions: in vivo
[3] = Toxicity in male Sprague-Dawley rat assessed as decrease in RBC level at 10 mg/kg , iv administered every day for 4 weeks; format: organism-based, Erythrocyte; parameters: scale not given: the % may be the effect or the level left; conditions: in vivo, 672 h
[4] = Drug metabolism in Beagle dog plasma assessed as cis-(R)-2-(4-(((1S,2S)-2-hydroxycyclopentyl)methyl)phenyl)propanoic acid metabolite formation at 3 mg/kg, iv measured after 2 hrs by UHPLC-MS/MS analysis; format: ADME, organism-based, Canis lupus familiaris; conditions: in vivo
Mus musculus [5] = test: Antinociceptive activity in acetic acid induced ICR mouse assessed as inhibition effect at 0.25 mg/kg, iv administered for 15 mins followed by acetic acid injection and measured within 15 mins; format: functional; conditions: 0.5 h, time 30 min
[6] = Toxicity in Beagle dog assessed as change in red cell distribution width at 10 mg/kg , iv administered every day for 4 weeks; format: organism-based, Canis lupus familiaris; conditions: in vivo, 672 h
Mus musculus [7] = test: Antinociceptive activity in acetic acid induced ICR mouse assessed as inhibition effect at 0.50 mg/kg, iv administered for 15 mins followed by acetic acid injection and measured within 15 mins; format: functional; conditions: 0.5 h, time 30 min
[8] = Toxicity in Beagle dog assessed as change in hemoglobin level at 10 mg/kg , iv administered every day for 4 weeks; format: organism-based, Canis lupus familiaris; conditions: in vivo, 672 h
[9] = Plasma protein binding in Sprague-Dawley rat at 600 to 15000 ng/ml measured after 6 hrs by LC-MS/MS analysis; format: ADME, cell-free; conditions: dose 600-15000 ng/ml, read-out: PPB
[10] = Drug metabolism in Beagle dog plasma assessed as trans-(R)-2-(4-(((1S,2R)-2-Hydroxycyclopentyl)methyl)phenyl)propanoic acid metabolite formation at 3 mg/kg, iv measured after 2 hrs by UHPLC-MS/MS analysis; format: ADME, organism-based, Canis lupus familiaris; conditions: in vivo
[11] = Toxicity in Beagle dog assessed as change in RBC level at 10 mg/kg , iv administered every day for 4 weeks; format: organism-based, Canis lupus familiaris, Erythrocyte; conditions: in vivo, 672 h
[12] = Drug metabolism in Sprague-Dawley rat plasma assessed as trans-(S)-2-(4-(((1S,2R)-2-Hydroxycyclopentyl)methyl)phenyl)propanoic acid metabolite formation at 3 mg/kg, iv measured after 2 hrs by UHPLC-MS/MS analysis; format: ADME, organism-based; conditions: in vivo
[13] = Plasma protein binding in cynomolgus monkey at 600 to 15000 ng/ml measured after 6 hrs by LC-MS/MS analysis; format: ADME, cell-free, Macaca fascicularis; conditions: dose 600-15000 ng/ml, read-out: PPB
[14] = Toxicity in Sprague-Dawley rat assessed as change in RBC level at 10 mg/kg , iv administered every day for 4 weeks and measured after 8 weeks; format: organism-based, Erythrocyte; conditions: in vivo, 1344 h
Mus musculus [15] = test: Analgesic activity in acetic acid induced ICR mouse assessed as average writhing times at 0.50 mg/kg, iv administered for 15 mins followed by acetic acid injection and measured within 15 mins (reference value: 21.1 +/- 16.3); format: functional; conditions: dose 0.5 mg/kg, time 30 min
[16] = Plasma protein binding in CD-1 mouse at 600 to 15000 ng/ml measured after 6 hrs by LC-MS/MS analysis; format: ADME, cell-free; conditions: dose 600-15000 ng/ml, read-out: PPB
[17] = Solubility of the compound in pre-warmed distilled water at 500 mg measured after 30 mins by HPLC analysis; format: physicochemical
[18] = Drug metabolism in Sprague-Dawley rat plasma assessed as cis-(R)-2-(4-(((1S,2S)-2-hydroxycyclopentyl)methyl)phenyl)propanoic acid metabolite formation at 3 mg/kg, iv measured after 2 hrs by UHPLC-MS/MS analysis; format: ADME, organism-based; conditions: in vivo
Mus musculus [19] = test: Analgesic activity in iv dosed ICR mouse assessed as reduction in acetic acid induced writhing administered for 15 mins followed by acetic acid injection and measured within 15 mins; format: functional; conditions: 0.5 h, time 30 min
Mus musculus [20] = test: Analgesic activity in acetic acid induced ICR mouse assessed as average writhing times at 0.13 mg/kg, iv administered for 15 mins followed by acetic acid injection and measured within 15 mins (reference value: 21.1 +/- 16.3); format: functional; conditions: time 30 min, 0.5 h
[21] = Toxicity in Sprague-Dawley rat assessed as effect on reticulocytes at 10 mg/kg , iv administered every day for 4 weeks; format: organism-based; conditions: in vivo, 672 h
[22] = Toxicity in Sprague-Dawley rat assessed as effect on reticulocytes at 10 mg/kg , iv administered every day for 4 weeks and measured after 8 weeks; format: organism-based; conditions: in vivo, 1344 h
[23] = Toxicity in Sprague-Dawley rat assessed as change in hemoglobin level at 10 mg/kg , iv administered every day for 4 weeks and measured after 8 weeks; format: organism-based; conditions: in vivo, 1344 h
Mus musculus [24] = test: Antinociceptive activity in acetic acid induced ICR mouse assessed as inhibition effect at 0.13 mg/kg, iv administered for 15 mins followed by acetic acid injection and measured within 15 mins; format: functional; conditions: 0.5 h, time 30 min
[25] = Plasma protein binding in human at 600 to 15000 ng/ml measured after 1 to 8 hrs by LC-MS/MS analysis; format: ADME, cell-free; conditions: dose lower 600 ng/ml, time lower 1 hrs, dose upper 15000 ng/ml, time upper 8 hrs, read-out: PPB
Rattus norvegicus [26] = species on record: Rattus norvegicus; test: Anti-hyperalgesic activity in carrageenan-induced mechanical hyperalgesia Sprague-Dawley rat model assessed as paw withdrawal threshold measured after 2.5 hrs by paw pressure test; format: functional
[27] = Toxicity in Sprague-Dawley rat assessed as change in red cell distribution width at 10 mg/kg , iv administered every day for 4 weeks; format: organism-based; conditions: in vivo, 672 h
[28] = Toxicity in female Sprague-Dawley rat assessed as decrease in hemoglobin level at 10 mg/kg , iv administered every day for 4 weeks; format: organism-based; parameters: scale not given: the % may be the effect or the level left; conditions: in vivo, 672 h
[29] = Toxicity in Sprague-Dawley rat assessed as change in mean corpuscular hemoglobin concentration at 10 mg/kg , iv administered every day for 4 weeks and measured after 8 weeks; format: organism-based; conditions: in vivo, 1344 h
[30] = Toxicity in Sprague-Dawley rat assessed as change in mean corpuscular hemoglobin concentration at 10 mg/kg , iv administered every day for 4 weeks; format: organism-based; conditions: in vivo, 672 h
[31] = Drug metabolism in Sprague-Dawley rat plasma assessed as cis-(R)-2-(4-(((1R,2R)-2-Hydroxycyclopentyl)methyl)phenyl)propanoic acid metabolite formation at 3 mg/kg, iv measured after 2 hrs by UHPLC-MS/MS analysis; format: ADME, organism-based; conditions: in vivo
[32] = Toxicity in Beagle dog assessed as effect on reticulocytes at 10 mg/kg, iv administered every day for 4 weeks; format: organism-based, Canis lupus familiaris; conditions: in vivo, 672 h
[33] = Toxicity in female Sprague-Dawley rat assessed as decrease in RBC level at 10 mg/kg , iv administered every day for 4 weeks; format: organism-based, Erythrocyte; parameters: scale not given: the % may be the effect or the level left; conditions: in vivo, 672 h
[34] = Toxicity in male Sprague-Dawley rat assessed as decrease in hemoglobin level at 10 mg/kg , iv administered every day for 4 weeks; format: organism-based; parameters: scale not given: the % may be the effect or the level left; conditions: in vivo, 672 h
Rattus norvegicus [35] = species on record: Rattus norvegicus; test: Antiinflammatory activity in carrageenan-induced Sprague-Dawley rat assessed as paw withdrawal threshold measured after 2.5 hrs by paw pressure test; format: functional
[36] = Drug metabolism in Beagle dog plasma assessed as cis-(R)-2-(4-(((1R,2R)-2-Hydroxycyclopentyl)methyl)phenyl)propanoic acid metabolite formation at 3 mg/kg, iv measured after 2 hrs by UHPLC-MS/MS analysis; format: ADME, organism-based, Canis lupus familiaris; conditions: in vivo
Mus musculus [37] = test: Analgesic activity in acetic acid induced ICR mouse assessed as average writhing times at 1 mg/kg, iv administered for 15 mins followed by acetic acid injection and measured within 15 mins (reference value: 21.1 +/- 16.3); format: functional; conditions: time 30 min, 0.5 h
[38] = Toxicity in Beagle dog assessed as change in mean corpuscular hemoglobin concentration at 10 mg/kg , iv administered every day for 4 weeks; format: organism-based, Canis lupus familiaris; conditions: in vivo, 672 h
Mus musculus [39] = test: Antinociceptive activity in acetic acid induced ICR mouse assessed as inhibition effect at 1 mg/kg, iv administered for 15 mins followed by acetic acid injection and measured within 15 mins; format: functional; conditions: 0.5 h, time 30 min
[40] = Toxicity in NZW rabbit assessed as infiltration of inflammatory cells at 10 mg/kg/day, iv administered once daily for 7 days and measured after 3 to 14 days by H and E staining based optical microscopy analysis; format: organism-based, Oryctolagus cuniculus; conditions: in vivo, time 3-14 day
[41] = Toxicity in Sprague-Dawley rat assessed as red cell distribution width at 10 mg/kg , iv administered every day for 4 weeks and measured after 8 weeks; format: organism-based; conditions: in vivo, 1344 h
[42] = Toxicity in NZW rabbit assessed as necrosis in endothelial cells at 10 mg/kg/day, iv administered once daily for 7 days and measured after 3 to 14 days by H and E staining based optical microscopy analysis; format: organism-based, Oryctolagus cuniculus; conditions: in vivo, time 3-14 day
[43] = Plasma protein binding in Beagle dog at 600 to 15000 ng/ml measured after 6 hrs by LC-MS/MS analysis; format: ADME, cell-free, Canis lupus familiaris; conditions: dose 600-15000 ng/ml, read-out: PPB

C[C@H](C(=O)O)c1ccc(C[C@H]2CCC[C@@H]2O)cc1.NC(CO)(CO)CO
Activity (Mus musculus [1]): 12.8
Drug metabolism [2]: Metabolite_Notdetected
Activity [3]: < 10%
Drug metabolism [4]: Metabolite_Notdetected
inhibition in vivo at 0.25 mg/kg (Mus musculus [5]): 39.3%
Activity [6]: Non-Toxic
inhibition in vivo at 0.5 mg/kg (Mus musculus [7]): 63.5%
Activity [8]: Non-Toxic
fraction unbound at 6 h [9]: < 0.3
Drug metabolism [10]: Metabolite_Notdetected
Activity [11]: Non-Toxic
Drug metabolism [12]: Metabolite_Notdetected
fraction unbound at 6 h [13]: < 0.3
Activity [14]: Non-Toxic
Activity (Mus musculus [15]): 7.7
fraction unbound at 6 h [16]: < 0.3
solubility at 0.5 h [17]: 176 mg/mL
Drug metabolism [18]: Metabolite_Notdetected
ED50 (Mus musculus [19]): 0.43 mg/kg
Activity (Mus musculus [20]): 19
Activity [21]: Non-Toxic
Activity [22]: Non-Toxic
Activity [23]: Non-Toxic
inhibition in vivo at 0.13 mg/kg (Mus musculus [24]): 10%
fraction unbound [25]: < 0.05
ED50 (Rattus norvegicus [26]): 1.28 mg/kg
Activity [27]: Non-Toxic
Activity [28]: < 10%
Activity [29]: Non-Toxic
Activity [30]: Non-Toxic
Drug metabolism [31]: Metabolite_Notdetected
Activity [32]: Non-Toxic
Activity [33]: < 10%
Activity [34]: < 10%
ED50 (Rattus norvegicus [35]): 8.01 mg/kg
Drug metabolism [36]: Metabolite_Notdetected
Activity (Mus musculus [37]): 6.7
Activity [38]: Non-Toxic
inhibition in vivo at 1 mg/kg (Mus musculus [39]): 68.2%
Activity [40]: Non-Toxic
Activity [41]: Non-Toxic
Activity [42]: Non-Toxic
fraction unbound at 6 h [43]: < 0.3
